≈ marks a conversion by molar mass, not a printed value.
The molecules below were run on Alternaria solani (assay: microbe, parasite or virus in culture). Conditions: read-out: MIC (Minimum Inhibitory Concentration) ALTESO.
Assay type: cell-based

Compound | MIC
Cc1cccc(C)c1-c1c(-c2c(F)cccc2Cl)c(Cl)nc2ncnn12 [Example 33] | > 100 µg/mL
Cc1cccc(-c2c(-c3c(F)cccc3Cl)c(Cl)nc3ncnn23)c1 [Example 34] | 1.56 µg/mL (≈ 4.18 µM)
Cc1ccccc1-c1c(-c2c(F)cccc2Cl)c(Cl)nc2ncnn12 [Example 35] | 3.13 µg/mL (≈ 8.39 µM)
O=C1CCCC(=O)C1c1c(-c2c(F)cccc2Cl)c(Cl)nc2ncnn12 [Example 36] | > 100 µg/mL
COc1nc2ncnn2c(C2CCCCC2)c1-c1c(F)cccc1Cl [Example 38] | 100 µg/mL (≈ 277 µM)
Fc1cccc(F)c1-c1c(Cl)nc2ncnn2c1C1CCCCC1 [Example 40] | 0.1 µg/mL (≈ 0.287 µM)
Fc1ccc(-c2c(-c3c(F)cccc3Cl)c(Cl)nc3ncnn23)cc1 [Example 41] | 1.56 µg/mL (≈ 4.14 µM)
Fc1ccccc1-c1c(Cl)nc2ncnn2c1C1CCCCC1 [Example 42] | 0.39 µg/mL (≈ 1.18 µM)
Clc1ccccc1-c1c(Cl)nc2ncnn2c1C1CCCCC1 [Example 43] | 1.56 µg/mL (≈ 4.49 µM)
Fc1cc(F)c(-c2c(Cl)nc3ncnn3c2C2CCCCC2)c(F)c1 [Example 44] | < 0.05 µg/mL
[N-]=[N+]=Nc1nc2ncnn2c(C2CCCCC2)c1-c1c(F)cccc1Cl [Example 45] | 100 µg/mL (≈ 269 µM)
COc1nc2ncnn2c(C2CCCCC2)c1-c1ccccc1F [Example 50] | > 100 µg/mL
Fc1c(F)c(F)c(-c2c(Cl)nc3ncnn3c2C2CCCCC2)c(F)c1F [Example 101, 5-chloro-7-cyclohexyl-6-(pentafluorophenyl)-1,2,4-triazolo[1,5a]pyrimidine] | 0.2 µg/mL (≈ 0.497 µM)

What follows are molecules tested on Rhizoctonia solani (assay: microbe, parasite or virus in culture). Conditions: read-out: MIC (Minimum Inhibitory Concentration) RHIZSO.
Assay type: cell-based

Compound | MIC
Cc1cccc(C)c1-c1c(-c2c(F)cccc2Cl)c(Cl)nc2ncnn12 [Example 33] | > 100 µg/mL
Cc1cccc(-c2c(-c3c(F)cccc3Cl)c(Cl)nc3ncnn23)c1 [Example 34] | > 100 µg/mL
Cc1ccccc1-c1c(-c2c(F)cccc2Cl)c(Cl)nc2ncnn12 [Example 35] | 3.13 µg/mL (≈ 8.39 µM)
O=C1CCCC(=O)C1c1c(-c2c(F)cccc2Cl)c(Cl)nc2ncnn12 [Example 36] | > 100 µg/mL
COc1nc2ncnn2c(C2CCCCC2)c1-c1c(F)cccc1Cl [Example 38] | > 100 µg/mL
Fc1cccc(F)c1-c1c(Cl)nc2ncnn2c1C1CCCCC1 [Example 40] | > 100 µg/mL
Fc1ccc(-c2c(-c3c(F)cccc3Cl)c(Cl)nc3ncnn23)cc1 [Example 41] | 3.13 µg/mL (≈ 8.3 µM)
Fc1ccccc1-c1c(Cl)nc2ncnn2c1C1CCCCC1 [Example 42] | > 100 µg/mL
Clc1ccccc1-c1c(Cl)nc2ncnn2c1C1CCCCC1 [Example 43] | > 100 µg/mL
Fc1cc(F)c(-c2c(Cl)nc3ncnn3c2C2CCCCC2)c(F)c1 [Example 44] | 0.78 µg/mL (≈ 2.13 µM)
[N-]=[N+]=Nc1nc2ncnn2c(C2CCCCC2)c1-c1c(F)cccc1Cl [Example 45] | > 100 µg/mL
COc1nc2ncnn2c(C2CCCCC2)c1-c1ccccc1F [Example 50] | > 100 µg/mL
Fc1c(F)c(F)c(-c2c(Cl)nc3ncnn3c2C2CCCCC2)c(F)c1F [Example 101, 5-chloro-7-cyclohexyl-6-(pentafluorophenyl)-1,2,4-triazolo[1,5a]pyrimidine] | > 100 µg/mL

These molecules were tested on Leptosphaeria nodorum (assay: microbe, parasite or virus in culture). Conditions: Parastagonospora nodorum, read-out: MIC (Minimum Inhibitory Concentration) LEPTNO.
Assay type: cell-based

Compound | MIC
Cc1cccc(C)c1-c1c(-c2c(F)cccc2Cl)c(Cl)nc2ncnn12 [Example 33] | > 100 µg/mL
Cc1cccc(-c2c(-c3c(F)cccc3Cl)c(Cl)nc3ncnn23)c1 [Example 34] | 25 µg/mL (≈ 67 µM)
Cc1ccccc1-c1c(-c2c(F)cccc2Cl)c(Cl)nc2ncnn12 [Example 35] | 6.25 µg/mL (≈ 16.7 µM)
O=C1CCCC(=O)C1c1c(-c2c(F)cccc2Cl)c(Cl)nc2ncnn12 [Example 36] | > 100 µg/mL
COc1nc2ncnn2c(C2CCCCC2)c1-c1c(F)cccc1Cl [Example 38] | > 100 µg/mL
Fc1cccc(F)c1-c1c(Cl)nc2ncnn2c1C1CCCCC1 [Example 40] | > 100 µg/mL
Fc1ccc(-c2c(-c3c(F)cccc3Cl)c(Cl)nc3ncnn23)cc1 [Example 41] | > 100 µg/mL
Fc1ccccc1-c1c(Cl)nc2ncnn2c1C1CCCCC1 [Example 42] | 0.39 µg/mL (≈ 1.18 µM)
Clc1ccccc1-c1c(Cl)nc2ncnn2c1C1CCCCC1 [Example 43] | 1.56 µg/mL (≈ 4.49 µM)
Fc1cc(F)c(-c2c(Cl)nc3ncnn3c2C2CCCCC2)c(F)c1 [Example 44] | 0.2 µg/mL (≈ 0.545 µM)
[N-]=[N+]=Nc1nc2ncnn2c(C2CCCCC2)c1-c1c(F)cccc1Cl [Example 45] | > 100 µg/mL
COc1nc2ncnn2c(C2CCCCC2)c1-c1ccccc1F [Example 50] | > 100 µg/mL
Fc1c(F)c(F)c(-c2c(Cl)nc3ncnn3c2C2CCCCC2)c(F)c1F [Example 101, 5-chloro-7-cyclohexyl-6-(pentafluorophenyl)-1,2,4-triazolo[1,5a]pyrimidine] | 0.2 µg/mL (≈ 0.497 µM)

Each molecule was assayed on Phytophthora infestans (assay: microbe, parasite or virus in culture). Conditions: read-out: MIC (Minimum Inhibitory Concentration) PHYTIN.
Assay type: cell-based

Compound | MIC
Cc1cccc(C)c1-c1c(-c2c(F)cccc2Cl)c(Cl)nc2ncnn12 [Example 33] | 6.25 µg/mL (≈ 16.1 µM)
Cc1cccc(-c2c(-c3c(F)cccc3Cl)c(Cl)nc3ncnn23)c1 [Example 34] | 50 µg/mL (≈ 134 µM)
Cc1ccccc1-c1c(-c2c(F)cccc2Cl)c(Cl)nc2ncnn12 [Example 35] | 25 µg/mL (≈ 67 µM)
O=C1CCCC(=O)C1c1c(-c2c(F)cccc2Cl)c(Cl)nc2ncnn12 [Example 36] | 12.5 µg/mL (≈ 31.8 µM)
COc1nc2ncnn2c(C2CCCCC2)c1-c1c(F)cccc1Cl [Example 38] | > 100 µg/mL
Fc1cccc(F)c1-c1c(Cl)nc2ncnn2c1C1CCCCC1 [Example 40] | > 100 µg/mL
Fc1ccc(-c2c(-c3c(F)cccc3Cl)c(Cl)nc3ncnn23)cc1 [Example 41] | > 100 µg/mL
Fc1ccccc1-c1c(Cl)nc2ncnn2c1C1CCCCC1 [Example 42] | > 100 µg/mL
Clc1ccccc1-c1c(Cl)nc2ncnn2c1C1CCCCC1 [Example 43] | > 100 µg/mL
Fc1cc(F)c(-c2c(Cl)nc3ncnn3c2C2CCCCC2)c(F)c1 [Example 44] | > 100 µg/mL
[N-]=[N+]=Nc1nc2ncnn2c(C2CCCCC2)c1-c1c(F)cccc1Cl [Example 45] | > 100 µg/mL
COc1nc2ncnn2c(C2CCCCC2)c1-c1ccccc1F [Example 50] | > 100 µg/mL
Fc1c(F)c(F)c(-c2c(Cl)nc3ncnn3c2C2CCCCC2)c(F)c1F [Example 101, 5-chloro-7-cyclohexyl-6-(pentafluorophenyl)-1,2,4-triazolo[1,5a]pyrimidine] | > 100 µg/mL

What follows are molecules tested on Pyrenophora teres (assay: microbe, parasite or virus in culture). Conditions: read-out: MIC (Minimum Inhibitory Concentration) PYRNTE.
Assay type: cell-based

Compound | MIC
Cc1cccc(C)c1-c1c(-c2c(F)cccc2Cl)c(Cl)nc2ncnn12 [Example 33] | > 100 µg/mL
Cc1cccc(-c2c(-c3c(F)cccc3Cl)c(Cl)nc3ncnn23)c1 [Example 34] | > 100 µg/mL
Cc1ccccc1-c1c(-c2c(F)cccc2Cl)c(Cl)nc2ncnn12 [Example 35] | > 100 µg/mL
O=C1CCCC(=O)C1c1c(-c2c(F)cccc2Cl)c(Cl)nc2ncnn12 [Example 36] | > 100 µg/mL
COc1nc2ncnn2c(C2CCCCC2)c1-c1c(F)cccc1Cl [Example 38] | > 100 µg/mL
Fc1cccc(F)c1-c1c(Cl)nc2ncnn2c1C1CCCCC1 [Example 40] | 3.13 µg/mL (≈ 8.97 µM)
Fc1ccc(-c2c(-c3c(F)cccc3Cl)c(Cl)nc3ncnn23)cc1 [Example 41] | 3.13 µg/mL (≈ 8.3 µM)
Fc1ccccc1-c1c(Cl)nc2ncnn2c1C1CCCCC1 [Example 42] | 3.13 µg/mL (≈ 9.46 µM)
Clc1ccccc1-c1c(Cl)nc2ncnn2c1C1CCCCC1 [Example 43] | > 100 µg/mL
Fc1cc(F)c(-c2c(Cl)nc3ncnn3c2C2CCCCC2)c(F)c1 [Example 44] | 0.2 µg/mL (≈ 0.545 µM)
[N-]=[N+]=Nc1nc2ncnn2c(C2CCCCC2)c1-c1c(F)cccc1Cl [Example 45] | > 100 µg/mL
COc1nc2ncnn2c(C2CCCCC2)c1-c1ccccc1F [Example 50] | > 100 µg/mL
Fc1c(F)c(F)c(-c2c(Cl)nc3ncnn3c2C2CCCCC2)c(F)c1F [Example 101, 5-chloro-7-cyclohexyl-6-(pentafluorophenyl)-1,2,4-triazolo[1,5a]pyrimidine] | 3.13 µg/mL (≈ 7.77 µM)

The molecules below were run on Magnaporthe grisea f. sp. oryzae (assay: microbe, parasite or virus in culture). Conditions: Pyricularia oryzae, read-out: MIC (Minimum Inhibitory Concentration) PYRIOR, Table II; total inhibition of mycelial growth, V8 juice nutrient solution, 6-12 days at 18-25°C, visual inspection.
Assay type: cell-based

Compound | MIC
Cc1cccc(C)c1-c1c(-c2c(F)cccc2Cl)c(Cl)nc2ncnn12 [Example 33] | 12.5 µg/mL (≈ 32.3 µM)
Cc1cccc(-c2c(-c3c(F)cccc3Cl)c(Cl)nc3ncnn23)c1 [Example 34] | 0.78 µg/mL (≈ 2.09 µM)
Cc1ccccc1-c1c(-c2c(F)cccc2Cl)c(Cl)nc2ncnn12 [Example 35] | 0.78 µg/mL (≈ 2.09 µM)
O=C1CCCC(=O)C1c1c(-c2c(F)cccc2Cl)c(Cl)nc2ncnn12 [Example 36] | > 100 µg/mL
COc1nc2ncnn2c(C2CCCCC2)c1-c1c(F)cccc1Cl [Example 38] | 0.78 µg/mL (≈ 2.16 µM)
Fc1cccc(F)c1-c1c(Cl)nc2ncnn2c1C1CCCCC1 [Example 40] | 0.39 µg/mL (≈ 1.12 µM)
Fc1ccc(-c2c(-c3c(F)cccc3Cl)c(Cl)nc3ncnn23)cc1 [Example 41] | 0.1 µg/mL (≈ 0.265 µM)
Fc1ccccc1-c1c(Cl)nc2ncnn2c1C1CCCCC1 [Example 42] | 0.39 µg/mL (≈ 1.18 µM)
Clc1ccccc1-c1c(Cl)nc2ncnn2c1C1CCCCC1 [Example 43] | 0.39 µg/mL (≈ 1.12 µM)
Fc1cc(F)c(-c2c(Cl)nc3ncnn3c2C2CCCCC2)c(F)c1 [Example 44] | < 0.05 µg/mL
[N-]=[N+]=Nc1nc2ncnn2c(C2CCCCC2)c1-c1c(F)cccc1Cl [Example 45] | 12.5 µg/mL (≈ 33.6 µM)
COc1nc2ncnn2c(C2CCCCC2)c1-c1ccccc1F [Example 50] | 25 µg/mL (≈ 76.6 µM)
Fc1c(F)c(F)c(-c2c(Cl)nc3ncnn3c2C2CCCCC2)c(F)c1F [Example 101, 5-chloro-7-cyclohexyl-6-(pentafluorophenyl)-1,2,4-triazolo[1,5a]pyrimidine] | 0.2 µg/mL (≈ 0.497 µM)

These molecules were tested on Botrytis cinerea (assay: microbe, parasite or virus in culture). Conditions: read-out: MIC (Minimum Inhibitory Concentration) BOTRCI.
Assay type: cell-based

Compound | MIC
Cc1cccc(C)c1-c1c(-c2c(F)cccc2Cl)c(Cl)nc2ncnn12 [Example 33] | > 100 µg/mL
Cc1cccc(-c2c(-c3c(F)cccc3Cl)c(Cl)nc3ncnn23)c1 [Example 34] | 6.25 µg/mL (≈ 16.7 µM)
Cc1ccccc1-c1c(-c2c(F)cccc2Cl)c(Cl)nc2ncnn12 [Example 35] | 3.13 µg/mL (≈ 8.39 µM)
O=C1CCCC(=O)C1c1c(-c2c(F)cccc2Cl)c(Cl)nc2ncnn12 [Example 36] | > 100 µg/mL
COc1nc2ncnn2c(C2CCCCC2)c1-c1c(F)cccc1Cl [Example 38] | > 100 µg/mL
Fc1cccc(F)c1-c1c(Cl)nc2ncnn2c1C1CCCCC1 [Example 40] | 0.39 µg/mL (≈ 1.12 µM)
Fc1ccc(-c2c(-c3c(F)cccc3Cl)c(Cl)nc3ncnn23)cc1 [Example 41] | 3.13 µg/mL (≈ 8.3 µM)
Fc1ccccc1-c1c(Cl)nc2ncnn2c1C1CCCCC1 [Example 42] | 1.56 µg/mL (≈ 4.72 µM)
Clc1ccccc1-c1c(Cl)nc2ncnn2c1C1CCCCC1 [Example 43] | > 100 µg/mL
Fc1cc(F)c(-c2c(Cl)nc3ncnn3c2C2CCCCC2)c(F)c1 [Example 44] | < 0.05 µg/mL
[N-]=[N+]=Nc1nc2ncnn2c(C2CCCCC2)c1-c1c(F)cccc1Cl [Example 45] | > 100 µg/mL
COc1nc2ncnn2c(C2CCCCC2)c1-c1ccccc1F [Example 50] | > 100 µg/mL
Fc1c(F)c(F)c(-c2c(Cl)nc3ncnn3c2C2CCCCC2)c(F)c1F [Example 101, 5-chloro-7-cyclohexyl-6-(pentafluorophenyl)-1,2,4-triazolo[1,5a]pyrimidine] | 0.78 µg/mL (≈ 1.94 µM)

Reference: patent EP1054888B1 (priority 1998, dated 1999)
